In the NIST ThermoML archive (doi:10.1021/je7001122):
“And” between values parts separate entries of the source, which are not always exact repeats. Equal entries are not always repeated. Numbers after ± are expanded uncertainties.

Conditions: Liquid

CCCCCCCCCCCCCCCCCCCCCCCCCCCC [octacosane]
Transpiration method
Conditions	vapor or sublimation pressure
354.01 K	2.14e-06 ± 2.6e-07 kPa
373.92 K	1.77e-05 ± 1.2e-06 kPa and 1.8e-05 ± 1.2e-06 kPa
393.65 K	0.000122 ± 7e-06 kPa and 0.000126 ± 7e-06 kPa
413.5 K	0.000633 ± 3.5e-05 kPa and 0.000651 ± 3.6e-05 kPa and 0.00063 ± 3.5e-05 kPa
433.32 K	0.00293 ± 0.00016 kPa
453.28 K	0.01264 ± 0.00068 kPa
473.64 K	0.04404 ± 0.0024 kPa
494.8 K	0.1554 ± 0.0081 kPa
516.89 K	0.4272 ± 0.05 kPa

CCCCCCCCCCCCCCCCCCCCCCCC [tetracosane]
vapor or sublimation pressure
Conditions	Diaphragm manometer	Transpiration method
333.46 K	–	4.3e-06 ± 5e-07 kPa
353.43 K	–	4.35e-05 ± 2.4e-06 kPa
353.97 K	–	4.5e-05 ± 2.5e-06 kPa
373.17 K	0.000296 ± 2.1e-05 kPa	0.000307 ± 1.6e-05 kPa
373.61 K	0.000322 ± 2.2e-05 kPa	0.000316 ± 1.7e-05 kPa
379.15 K	0.000531 ± 2.8e-05 kPa	0.000524 ± 3.1e-05 kPa
393.2 K	0.001727 ± 5.9e-05 kPa	0.001725 ± 9e-05 kPa and 0.001721 ± 9e-05 kPa
397.55 K	0.002432 ± 0.0001 kPa	0.002406 ± 0.00014 kPa
414.68 K	0.008547 ± 0.00027 kPa	0.00843 ± 0.00045 kPa
417.75 K	0.01055 ± 0.00032 kPa	0.0105 ± 0.00055 kPa
433.1 K	0.02857 ± 0.0009 kPa	–
452.6 K	0.08931 ± 0.0025 kPa	–

CCCCCCCCCC [decane]
Transpiration method
Conditions	vapor or sublimation pressure [kPa]
323.94 K	0.9556 ± 0.054
353.57 K	4.252 ± 0.22
373.15 K	10.05 ± 0.52
402.36 K	29.48 ± 1.5
402.48 K	29.36 ± 1.5
